Reference: PubChem BioAssay (NCI)
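Following 48 hours of exposure in 96-well plates, responses at five concentrations were used to interpolate endpoints linearly. Abbreviation: GI50, concentration required for 50% inhibition of growth. Definition used: TGI = concentration required for complete inhibition of growth.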

Key:
Assay in all cases: NCI tumour cell line growth inhibition, 48 h
HT29 colon = tested on: HT29 colon
NCI-H460 lung = tested on: NCI-H460 lung
SNB-75 CNS = tested on: SNB-75 CNS
TK-10 renal = tested on: TK-10 renal
SK-OV-3 ovarian = tested on: SK-OV-3 ovarian
HOP-62 NSCLC = tested on: HOP-62 NSCLC
M14 melanoma = tested on: M14 melanoma
HCC-2998 colon = tested on: HCC-2998 colon
NCI/ADR-RES ovarian = tested on: NCI/ADR-RES ovarian
HCT-15 colon = tested on: HCT-15 colon
UACC-257 melanoma = tested on: UACC-257 melanoma
OVCAR-3 ovarian = tested on: OVCAR-3 ovarian
ACHN renal = tested on: ACHN renal
K-562 leukemia = tested on: K-562 leukemia
A498 renal = tested on: A498 renal
MOLT-4 leukemia = tested on: MOLT-4 leukemia
SF-295 CNS = tested on: SF-295 CNS
CAKI-1 renal = tested on: CAKI-1 renal
T-47D breast = tested on: T-47D breast
NCI-H226 lung = tested on: NCI-H226 lung
NCI-H522 lung = tested on: NCI-H522 lung
A549 NSCLC = tested on: A549 NSCLC
UO-31 renal = tested on: UO-31 renal
HCT-116 colon = tested on: HCT-116 colon
IGROV1 ovarian = tested on: IGROV1 ovarian
SR leukemia = tested on: SR leukemia
EKVX NSCLC = tested on: EKVX NSCLC
SN12C renal = tested on: SN12C renal
SK-MEL-5 melanoma = tested on: SK-MEL-5 melanoma
HL-60(TB) leukemia = tested on: HL-60(TB) leukemia
HOP-92 NSCLC = tested on: HOP-92 NSCLC
SW-620 colon = tested on: SW-620 colon
MCF7 breast = tested on: MCF7 breast
COLO 205 colon = tested on: COLO 205 colon
LOX IMVI melanoma = tested on: LOX IMVI melanoma
SK-MEL-28 melanoma = tested on: SK-MEL-28 melanoma
SNB-19 CNS = tested on: SNB-19 CNS
NCI-H23 lung = tested on: NCI-H23 lung
OVCAR-4 ovarian = tested on: OVCAR-4 ovarian
MDA-MB-435 = tested on: MDA-MB-435
OVCAR-5 ovarian = tested on: OVCAR-5 ovarian
HS 578T breast = tested on: HS 578T breast
PC-3 prostate = tested on: PC-3 prostate
786-0 renal = tested on: 786-0 renal
SF-539 CNS = tested on: SF-539 CNS
SF-268 CNS = tested on: SF-268 CNS
UACC-62 melanoma = tested on: UACC-62 melanoma
RXF 393 renal = tested on: RXF 393 renal
BT-549 breast = tested on: BT-549 breast
OVCAR-8 ovarian = tested on: OVCAR-8 ovarian
DU-145 prostate = tested on: DU-145 prostate
KM12 colon = tested on: KM12 colon
RPMI-8226 leukemia = tested on: RPMI-8226 leukemia
MALME-3M melanoma = tested on: MALME-3M melanoma
SK-MEL-2 melanoma = tested on: SK-MEL-2 melanoma
U251 CNS = tested on: U251 CNS
MDA-MB-231 breast = tested on: MDA-MB-231 breast
CCRF-CEM leukemia = tested on: CCRF-CEM leukemia

## CCCCCCN(C)Cc1ccc(OCCOc2ccc(CN(C)CCCCCC)cc2)cc1
HT29 colon
  GI50: 375 nM
  TGI: 1530 nM
NCI-H460 lung
  GI50: 1350 nM
  TGI: 2990 nM
SNB-75 CNS
  GI50: 1200 nM
  TGI: 2570 nM
TK-10 renal
  GI50: 1290 nM
  TGI: 2600 nM
SK-OV-3 ovarian
  GI50: 1640 nM
  TGI: 3090 nM
HOP-62 NSCLC
  GI50: 1480 nM
  TGI: 3150 nM
M14 melanoma
  GI50: 448 nM
  TGI: 1830 nM
HCC-2998 colon
  GI50: 491 nM
  TGI: 1810 nM
NCI/ADR-RES ovarian
  GI50: 1380 nM
  TGI: 3160 nM
HCT-15 colon
  GI50: 984 nM
  TGI: 2830 nM
UACC-257 melanoma
  GI50: 448 nM
  TGI: 1840 nM
OVCAR-3 ovarian
  GI50: 1360 nM
  TGI: 2910 nM
ACHN renal
  GI50: 1620 nM
  TGI: 3630 nM
K-562 leukemia
  GI50: 452 nM
  TGI: > 100000 nM
A498 renal
  GI50: 1240 nM
  TGI: 3170 nM
MOLT-4 leukemia
  GI50: 2480 nM
  TGI: 10500 nM
SF-295 CNS
  GI50: 1230 nM
  TGI: 2760 nM
CAKI-1 renal
  GI50: 1350 nM
  TGI: 2900 nM
T-47D breast
  GI50: 1320 nM
  TGI: 3260 nM
NCI-H226 lung
  GI50: 1530 nM
  TGI: 3190 nM
NCI-H522 lung
  GI50: 944 nM
  TGI: 2250 nM
A549 NSCLC
  GI50: 1400 nM
  TGI: 2910 nM
UO-31 renal
  GI50: 1040 nM
  TGI: 5010 nM
HCT-116 colon
  GI50: 1010 nM
  TGI: 2210 nM
IGROV1 ovarian
  GI50: 1330 nM
  TGI: 3130 nM
SR leukemia
  GI50: 1040 nM
  TGI: 11600 nM
EKVX NSCLC
  GI50: 2470 nM
  TGI: 15100 nM
SN12C renal
  GI50: 1350 nM
  TGI: 3080 nM
SK-MEL-5 melanoma
  GI50: 1360 nM
  TGI: 2660 nM
HL-60(TB) leukemia
  GI50: 1910 nM
  TGI: 4510 nM
HOP-92 NSCLC
  GI50: 407 nM
  TGI: 2050 nM
SW-620 colon
  GI50: 1480 nM
  TGI: 3130 nM
MCF7 breast
  GI50: 1400 nM
  TGI: 2790 nM
COLO 205 colon
  GI50: 659 nM
  TGI: 2190 nM
LOX IMVI melanoma
  GI50: 1350 nM
  TGI: 2870 nM
SK-MEL-28 melanoma
  GI50: 1450 nM
  TGI: 2880 nM
SNB-19 CNS
  GI50: 1710 nM
  TGI: 3870 nM
NCI-H23 lung
  GI50: 1520 nM
  TGI: 3420 nM
OVCAR-4 ovarian
  GI50: 1170 nM
  TGI: 2740 nM
MDA-MB-435
  GI50: 1040 nM
  TGI: 2500 nM
OVCAR-5 ovarian
  GI50: 1460 nM
  TGI: 4030 nM
HS 578T breast
  GI50: 1470 nM
  TGI: 3970 nM
PC-3 prostate
  GI50: 1240 nM
  TGI: 2800 nM
786-0 renal
  GI50: 1440 nM
  TGI: 2800 nM
SF-539 CNS
  GI50: 1370 nM
  TGI: 2920 nM
SF-268 CNS
  GI50: 2590 nM
  TGI: 11800 nM
UACC-62 melanoma
  GI50: 1600 nM
  TGI: 3400 nM
RXF 393 renal
  GI50: 834 nM
  TGI: 2150 nM
BT-549 breast
  GI50: 1470 nM
  TGI: 3010 nM
OVCAR-8 ovarian
  GI50: 1410 nM
  TGI: 3160 nM
DU-145 prostate
  GI50: 2570 nM
  TGI: 10500 nM
KM12 colon
  GI50: 1470 nM
  TGI: 2840 nM
RPMI-8226 leukemia
  GI50: 1620 nM
  TGI: 25400 nM
MALME-3M melanoma
  GI50: 1130 nM
  TGI: 2870 nM
SK-MEL-2 melanoma
  GI50: 1610 nM
  TGI: 3080 nM
U251 CNS
  GI50: 1080 nM
  TGI: 2370 nM
MDA-MB-231 breast
  GI50: 1220 nM
  TGI: 2840 nM

## COc1cc(/C=C\c2cc(/C=C\c3ccc(O)c(OC)c3)n(C(=O)CNc3ccc(Cl)cc3)n2)ccc1O
HT29 colon
  GI50: 3000 nM
  TGI: 9270 nM
NCI-H460 lung
  GI50: 3170 nM
  TGI: 12500 nM
SNB-75 CNS
  GI50: 2840 nM
  TGI: 13000 nM
TK-10 renal
  GI50: 5520 nM
  TGI: 18800 nM
SK-OV-3 ovarian
  GI50: 3650 nM
  TGI: 13000 nM
HOP-62 NSCLC
  GI50: 4140 nM
  TGI: 16700 nM
M14 melanoma
  GI50: 2890 nM
  TGI: 15500 nM
CCRF-CEM leukemia
  GI50: 1490 nM
  TGI: 5450 nM
HCC-2998 colon
  GI50: 6010 nM
  TGI: 18000 nM
NCI/ADR-RES ovarian
  GI50: 3750 nM
  TGI: 41800 nM
HCT-15 colon
  GI50: 2540 nM
  TGI: 12200 nM
UACC-257 melanoma
  GI50: 5170 nM
  TGI: 17700 nM
OVCAR-3 ovarian
  GI50: 2460 nM
  TGI: 8110 nM
ACHN renal
  GI50: 628 nM
  TGI: 14900 nM
K-562 leukemia
  GI50: 2590 nM
  TGI: 12300 nM
A498 renal
  GI50: 7640 nM
  TGI: 20000 nM
MOLT-4 leukemia
  GI50: 2050 nM
  TGI: 15600 nM
SF-295 CNS
  GI50: 6070 nM
  TGI: 20100 nM
CAKI-1 renal
  GI50: 3360 nM
  TGI: 43600 nM
T-47D breast
  GI50: 2790 nM
  TGI: 16000 nM
NCI-H226 lung
  GI50: 4390 nM
  TGI: 21600 nM
NCI-H522 lung
  GI50: 1510 nM
  TGI: 5060 nM
A549 NSCLC
  GI50: 3940 nM
  TGI: 16500 nM
UO-31 renal
  GI50: 1210 nM
  TGI: 8420 nM
HCT-116 colon
  GI50: 2900 nM
  TGI: 13500 nM
IGROV1 ovarian
  GI50: 2840 nM
  TGI: 14300 nM
SR leukemia
  GI50: 341 nM
  TGI: 7140 nM
EKVX NSCLC
  GI50: 3480 nM
  TGI: 14500 nM
SN12C renal
  GI50: 3180 nM
  TGI: 20600 nM
SK-MEL-5 melanoma
  GI50: 3240 nM
  TGI: 11300 nM
HL-60(TB) leukemia
  GI50: 2070 nM
  TGI: 6680 nM
HOP-92 NSCLC
  GI50: 5650 nM
  TGI: 24200 nM
SW-620 colon
  GI50: 4750 nM
  TGI: 23200 nM
MCF7 breast
  GI50: 2340 nM
  TGI: 11900 nM
COLO 205 colon
  GI50: 4870 nM
  TGI: 18300 nM
LOX IMVI melanoma
  GI50: 2170 nM
  TGI: 6950 nM
SK-MEL-28 melanoma
  GI50: 2300 nM
  TGI: 11600 nM
SNB-19 CNS
  GI50: 3180 nM
  TGI: 14100 nM
NCI-H23 lung
  GI50: 3350 nM
  TGI: 15800 nM
OVCAR-4 ovarian
  GI50: 2880 nM
  TGI: > 100000 nM
MDA-MB-435
  GI50: 2520 nM
  TGI: 23400 nM
OVCAR-5 ovarian
  GI50: 2780 nM
  TGI: 25400 nM
HS 578T breast
  GI50: 4360 nM
  TGI: > 100000 nM
PC-3 prostate
  GI50: 3380 nM
  TGI: 47900 nM
786-0 renal
  GI50: 3030 nM
  TGI: 12800 nM
SF-268 CNS
  GI50: 2490 nM
  TGI: 14900 nM
UACC-62 melanoma
  GI50: 2730 nM
  TGI: 9200 nM
RXF 393 renal
  GI50: 2100 nM
  TGI: 4670 nM
BT-549 breast
  GI50: 3000 nM
  TGI: 47000 nM
OVCAR-8 ovarian
  GI50: 3630 nM
  TGI: 13900 nM
DU-145 prostate
  GI50: 3250 nM
  TGI: 12300 nM
KM12 colon
  GI50: 2640 nM
  TGI: 13100 nM
RPMI-8226 leukemia
  GI50: 1880 nM
  TGI: 6360 nM
MALME-3M melanoma
  GI50: 1600 nM
  TGI: 12000 nM
SK-MEL-2 melanoma
  GI50: 3970 nM
  TGI: 18800 nM
U251 CNS
  GI50: 2940 nM
  TGI: 11800 nM
MDA-MB-231 breast
  GI50: 4020 nM
  TGI: 45000 nM
